Experimental data as given in PubChem BioAssay (NCI).
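The compound was tested at five concentrations on cells cultured in 96-well plates, with a 48-hour exposure period. GI50: concentration for 50% inhibition of growth. TGI is the concentration that stops growth completely.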

Assays:
Assay in all cases: NCI anticancer screen, dose series, 48 h
NCI-H522 lung = tested on: NCI-H522 lung
HOP-62 NSCLC = tested on: HOP-62 NSCLC
MDA-MB-435 = tested on: MDA-MB-435
SNB-19 CNS = tested on: SNB-19 CNS
SF-295 CNS = tested on: SF-295 CNS
MALME-3M melanoma = tested on: MALME-3M melanoma
SW-620 colon = tested on: SW-620 colon
HOP-92 NSCLC = tested on: HOP-92 NSCLC
NCI-H226 lung = tested on: NCI-H226 lung
SK-OV-3 ovarian = tested on: SK-OV-3 ovarian

SMILES	TGI (NCI-H522 lung)	TGI (HOP-62 NSCLC)	TGI (MDA-MB-435)	TGI (SNB-19 CNS)	TGI (SF-295 CNS)	TGI (MALME-3M melanoma)	TGI (SW-620 colon)	TGI (HOP-92 NSCLC)	TGI (NCI-H226 lung)	TGI (SK-OV-3 ovarian)	GI50 (NCI-H522 lung)	GI50 (HOP-62 NSCLC)	GI50 (MDA-MB-435)	GI50 (SNB-19 CNS)	GI50 (SF-295 CNS)	GI50 (MALME-3M melanoma)	GI50 (SW-620 colon)	GI50 (HOP-92 NSCLC)	GI50 (NCI-H226 lung)	GI50 (SK-OV-3 ovarian)
COc1ccc(/C(Cl)=C(\C=O)c2ccc([N+](=O)[O-])cc2)cc1OC	> 35.8 µM	> 100 µM	13.5 µM	> 100 µM	44.2 µM	41 µM	28.1 µM	24.9 µM	> 54.8 µM	60 µM	–	–	–	–	–	–	–	–	–	–
O=C(O)C1C(C(=O)Nc2ccc3c(c2)Cc2ccccc2-3)C2(Cl)C(Cl)=C(Cl)C1(Cl)C2(Cl)Cl (stereo not drawn)	39.2 µM	> 100 µM	76.8 µM	> 100 µM	> 100 µM	44.6 µM	64.5 µM	57.3 µM	88 µM	> 100 µM	–	–	–	–	–	–	–	–	–	–
CCCCCC(O)C1C(=O)OC(C)C(O)/C=C/C=C/C=C/C=C\C=C(\C)C(O)CC(O)CC(O)CC(O)CC(O)CC(O)CC1O (stereo not drawn)	> 100 µM	> 100 µM	> 100 µM	> 100 µM	> 100 µM	> 100 µM	> 100 µM	> 100 µM	> 100 µM	> 100 µM	> 100 µM	> 100 µM	> 100 µM	> 100 µM	> 100 µM	> 100 µM	> 100 µM	> 100 µM	> 100 µM	> 100 µM
Cc1ccc(C2NC(=S)NC3=C2CCOc2c3ccc3ccccc23)cc1 (stereo not drawn)	> 100 µM	> 100 µM	> 100 µM	> 100 µM	–	7.73 µM	–	> 100 µM	> 100 µM	> 100 µM	> 100 µM	> 100 µM	2.78 µM	> 100 µM	–	2.98 µM	–	39.8 µM	> 100 µM	> 100 µM
ClC1=C(Cl)C(Cl)=C(Cl)C1=C/C=C/c1ccccc1	0.562 µM	4.17 µM	0.977 µM	2.44 µM	1.02 µM	0.499 µM	0.869 µM	0.491 µM	0.653 µM	> 27.5 µM	0.216 µM	1.2 µM	0.302 µM	0.59 µM	0.311 µM	0.167 µM	0.299 µM	0.165 µM	0.236 µM	2.44 µM
CCN(CC)c1cc(/C=C/c2ccc(OC)c(OC)c2)nc2cc(F)c(F)cc12	> 100 µM	5.44 µM	> 100 µM	7.09 µM	4.63 µM	–	> 100 µM	4.74 µM	9.07 µM	4.54 µM	6.35 µM	2.08 µM	> 100 µM	2.34 µM	2.03 µM	–	> 100 µM	1.68 µM	2.7 µM	1.98 µM
N#Cc1c(-c2ccc(Cl)cc2)n(O)c2ccccc12	6.32 µM	7.9 µM	1.26 µM	80.4 µM	6.09 µM	9.02 µM	13.2 µM	3.5 µM	12 µM	5.16 µM	2.11 µM	2.23 µM	0.29 µM	2.71 µM	2.33 µM	1.88 µM	0.996 µM	1.02 µM	2.83 µM	2.17 µM
COc1ccc(Nn2c(SCC(=O)Nc3nc(-c4ccc(Cl)cc4)cs3)nc(C)c2C)cc1	> 100 µM	–	> 100 µM	> 100 µM	> 100 µM	> 100 µM	> 100 µM	7.8 µM	> 100 µM	> 100 µM	5.05 µM	–	3.22 µM	6.19 µM	2.18 µM	2.9 µM	4.78 µM	2.42 µM	3.26 µM	4.24 µM
CCCCCCCC/C=C/CCCCCCCCC1=NCCN1CCO	25.9 µM	29.4 µM	3.91 µM	33.2 µM	4.05 µM	17.3 µM	3.24 µM	3.4 µM	33.7 µM	33.6 µM	6.34 µM	5.29 µM	1.87 µM	7.21 µM	1.93 µM	5.08 µM	1.71 µM	0.976 µM	9.91 µM	16.1 µM
COc1ccc(NC(=O)n2nc(N)c3ccccc32)cc1OC	> 100 µM	> 100 µM	> 100 µM	> 100 µM	> 100 µM	> 100 µM	> 100 µM	> 100 µM	> 100 µM	> 100 µM	34.9 µM	75.2 µM	> 100 µM	> 100 µM	37.6 µM	> 100 µM	> 100 µM	24.6 µM	83.1 µM	> 100 µM
CCC(C)n1cc(C)c2c(C(=O)NCc3c(C)cc(C)[nH]c3=O)cc(Br)cc21 (stereo not drawn)	> 100 µM	> 100 µM	> 100 µM	> 100 µM	> 100 µM	99.7 µM	> 100 µM	–	> 100 µM	> 100 µM	38 µM	65.2 µM	27.1 µM	> 100 µM	29.9 µM	36.2 µM	36.4 µM	–	57.5 µM	> 100 µM
NC(CSC(c1ccccc1)(c1ccccc1)c1ccc(Cl)cc1)C(=O)O (stereo not drawn)	3.71 µM	20.5 µM	0.158 µM	33.2 µM	3.57 µM	39.6 µM	> 78.7 µM	39.3 µM	49 µM	21.7 µM	0.128 µM	0.714 µM	0.0344 µM	0.569 µM	0.216 µM	1.97 µM	0.19 µM	1.4 µM	5.11 µM	0.158 µM
OCCCN=NNc1ccc(-c2nc3ccccc3[nH]2)cc1	60.6 µM	71.3 µM	16.1 µM	48.8 µM	7.58 µM	–	> 100 µM	66.5 µM	58.9 µM	73 µM	12.5 µM	50.5 µM	3.44 µM	22.9 µM	2.87 µM	–	3.04 µM	14.8 µM	26.2 µM	24.2 µM
